According to ChEMBL document CHEMBL1201862, “PubChem BioAssay data set” (2004):
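Protocol summary: plate cells (96-well), add compound at 5 concentrations, incubate 48 h, interpolate endpoints linearly. GI50 marks 50% less growth.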 Calls of active or inactive are those of the source. Rule as the data show it: active = GI50 up to about 1.1 µM and inactive = higher.

Columns and labels:
Assay in all cases: NCI-60 cell line screen, 48 h
MDA-N = test system: MDA-N
SNB-19 = test system: SNB-19
U-251 = test system: U-251
786-0 = test system: 786-0
UACC-257 = test system: UACC-257
BT-549 = test system: BT-549
SW-620 = test system: SW-620
COLO 205 = test system: COLO 205
SK-MEL-2 = test system: SK-MEL-2
HOP-62 = test system: HOP-62
MCF7 = test system: MCF7
LOX IMVI = test system: LOX IMVI
SK-OV-3 = test system: SK-OV-3
MDA-MB-231 = test system: MDA-MB-231
CAKI-1 = test system: CAKI-1
SK-MEL-28 = test system: SK-MEL-28
HCT-116 = test system: HCT-116
OVCAR-3 = test system: OVCAR-3
NCI-H522 = test system: NCI-H522
SF-295 = test system: SF-295
HT-29 = test system: HT-29
NCI-H23 = test system: NCI-H23
Malme-3M = test system: Malme-3M
M14 = test system: M14
A549 = test system: A549
SR = test system: SR
CCRF-CEM = test system: CCRF-CEM
UACC-62 = test system: UACC-62
MDA-MB-435 = test system: MDA-MB-435
OVCAR-4 = test system: OVCAR-4
SF-539 = test system: SF-539
SNB-75 = test system: SNB-75
HCC 2998 = test system: HCC 2998
EKVX = test system: EKVX
SF-268 = test system: SF-268
UO-31 = test system: UO-31
KM12 = test system: KM12
PC-3 = test system: PC-3
TK-10 = test system: TK-10
NCI-H226 = test system: NCI-H226
OVCAR-5 = test system: OVCAR-5
HL-60 = test system: HL-60
T47D = test system: T47D
IGROV-1 = test system: IGROV-1
NCI/ADR-RES = test system: NCI/ADR-RES
RXF 393 = test system: RXF 393
SN12C = test system: SN12C
ACHN = test system: ACHN
HOP-92 = test system: HOP-92
SK-MEL-5 = test system: SK-MEL-5
OVCAR-8 = test system: OVCAR-8
HCT-15 = test system: HCT-15
RPMI-8226 = test system: RPMI-8226
DU-145 = test system: DU-145
NCI-H460 = test system: NCI-H460
MOLT-4 = test system: MOLT-4
Hs-578T = test system: Hs-578T
K562 = test system: K562
A498 = test system: A498

## CC1/C=C/C=C/CC/C=C/C=C/C=C/C=C/C(OC2OC(C)C(O)C(N)C2O)CC2OC(CC(O)C(O)CCC(O)CC(O)CC(O)CC(=O)OC(C)C(C)C1O)CC(O)C2C(=O)O (configuration not stated)
MDA-N
  GI50: 17.3 µM (inactive)
SNB-19
  GI50: 18.3 µM (inactive)
U-251
  GI50: 17.4 µM (inactive)
786-0
  GI50: 17 µM (inactive)
UACC-257
  GI50: 17 µM (inactive)
BT-549
  GI50: 17 µM (inactive)
SW-620
  GI50: 20.7 µM (inactive)
COLO 205
  GI50: 21.8 µM (inactive)
SK-MEL-2
  GI50: 28.6 µM (inactive)
HOP-62
  GI50: 19.4 µM (inactive)
MCF7
  GI50: 17.5 µM (inactive)
LOX IMVI
  GI50: 18.2 µM (inactive)
SK-OV-3
  GI50: 23.2 µM (inactive)
MDA-MB-231
  GI50: 17.6 µM (inactive)
CAKI-1
  GI50: 17.5 µM (inactive)
SK-MEL-28
  GI50: 19.7 µM (inactive)
HCT-116
  GI50: 17.2 µM (inactive)
OVCAR-3
  GI50: 20 µM (inactive)
NCI-H522
  GI50: 19.3 µM (inactive)
SF-295
  GI50: 22.3 µM (inactive)
HT-29
  GI50: 17.3 µM (inactive)
NCI-H23
  GI50: 18.1 µM (inactive)
Malme-3M
  GI50: 17.9 µM (inactive)
M14
  GI50: 19.7 µM (inactive)
A549
  GI50: 18 µM (inactive)
SR
  GI50: 16.9 µM (inactive)
CCRF-CEM
  GI50: 28.8 µM (inactive)
UACC-62
  GI50: 20.9 µM (inactive)
MDA-MB-435
  GI50: 17.6 µM (inactive)
OVCAR-4
  GI50: 15.2 µM (inactive)
SF-539
  GI50: 16.1 µM (inactive)
SNB-75
  GI50: 18.6 µM (inactive)
HCC 2998
  GI50: 14.8 µM (inactive)
EKVX
  GI50: 16.7 µM (inactive)
SF-268
  GI50: 24.9 µM (inactive)
UO-31
  GI50: 21 µM (inactive)
KM12
  GI50: 26.8 µM (inactive)
PC-3
  GI50: 18.8 µM (inactive)
TK-10
  GI50: 17.5 µM (inactive)
NCI-H226
  GI50: 13.5 µM (inactive)
OVCAR-5
  GI50: 17.9 µM (inactive)
HL-60
  GI50: 23.9 µM (inactive)
T47D
  GI50: 57.1 µM (inactive)
IGROV-1
  GI50: 17.6 µM (inactive)
NCI/ADR-RES
  GI50: 21.3 µM (inactive)
RXF 393
  GI50: 13.8 µM (inactive)
SN12C
  GI50: 15.9 µM (inactive)
ACHN
  GI50: 17.7 µM (inactive)
HOP-92
  GI50: 45.6 µM (inactive)
SK-MEL-5
  GI50: 19.7 µM (inactive)
OVCAR-8
  GI50: 21.6 µM (inactive)
HCT-15
  GI50: 27.3 µM
RPMI-8226
  GI50: 22.6 µM (inactive)
DU-145
  GI50: 17.7 µM (inactive)
NCI-H460
  GI50: 17.5 µM (inactive)
MOLT-4
  GI50: 20.2 µM (inactive)
Hs-578T
  GI50: 24.8 µM (inactive)
K562
  GI50: 34.4 µM (inactive)
A498
  GI50: 18.7 µM (inactive)

## COC(=O)c1cc2c(cc1CC(Cc1ccc3c(c1)CCC3)C(=O)OC)CCC2 (configuration not stated)
MDA-N
  GI50: 38 µM (inactive)
SNB-19
  GI50: > 100 µM (inactive)
U-251
  GI50: 50.9 µM (inactive)
786-0
  GI50: 51.4 µM (inactive)
UACC-257
  GI50: 13.7 µM (inactive)
BT-549
  GI50: > 100 µM (inactive)
SW-620
  GI50: 74 µM (inactive)
COLO 205
  GI50: 29.5 µM (inactive)
SK-MEL-2
  GI50: 44.1 µM (inactive)
HOP-62
  GI50: > 100 µM (inactive)
MCF7
  GI50: 24.8 µM (inactive)
LOX IMVI
  GI50: 40.6 µM (inactive)
SK-OV-3
  GI50: 60.1 µM (inactive)
MDA-MB-231
  GI50: 70.6 µM (inactive)
CAKI-1
  GI50: > 100 µM (inactive)
SK-MEL-28
  GI50: 84.1 µM (inactive)
HCT-116
  GI50: 40.7 µM (inactive)
OVCAR-3
  GI50: > 100 µM (inactive)
NCI-H522
  GI50: 22.2 µM (inactive)
SF-295
  GI50: 84.5 µM (inactive)
HT-29
  GI50: 26.1 µM (inactive)
NCI-H23
  GI50: 63.5 µM (inactive)
Malme-3M
  GI50: 41.3 µM (inactive)
M14
  GI50: 72.8 µM (inactive)
A549
  GI50: 34 µM (inactive)
SR
  GI50: 11 µM (inactive)
CCRF-CEM
  GI50: 29.1 µM (inactive)
UACC-62
  GI50: > 100 µM (inactive)
MDA-MB-435
  GI50: 31 µM (inactive)
OVCAR-4
  GI50: 24 µM (inactive)
SF-539
  GI50: 35 µM (inactive)
SNB-75
  GI50: 22.9 µM (inactive)
HCC 2998
  GI50: 34.5 µM (inactive)
EKVX
  GI50: 27 µM (inactive)
SF-268
  GI50: 54.6 µM (inactive)
UO-31
  GI50: 63.7 µM (inactive)
KM12
  GI50: 46.1 µM (inactive)
PC-3
  GI50: 16.6 µM (inactive)
TK-10
  GI50: 88.5 µM (inactive)
NCI-H226
  GI50: 7.24 µM (inactive)
OVCAR-5
  GI50: 60.7 µM (inactive)
HL-60
  GI50: 8.61 µM (inactive)
T47D
  GI50: 26.8 µM (inactive)
IGROV-1
  GI50: > 100 µM (inactive)
NCI/ADR-RES
  GI50: 57.5 µM (inactive)
RXF 393
  GI50: 18.1 µM (inactive)
SN12C
  GI50: > 100 µM (inactive)
ACHN
  GI50: 45.7 µM (inactive)
HOP-92
  GI50: 21 µM (inactive)
SK-MEL-5
  GI50: 17.6 µM (inactive)
OVCAR-8
  GI50: > 100 µM (inactive)
HCT-15
  GI50: 39.2 µM
RPMI-8226
  GI50: 16.5 µM (inactive)
DU-145
  GI50: 83.8 µM (inactive)
NCI-H460
  GI50: 65.5 µM (inactive)
MOLT-4
  GI50: 26.9 µM (inactive)
Hs-578T
  GI50: 66.2 µM (inactive)
K562
  GI50: 34.2 µM (inactive)
A498
  GI50: > 100 µM (inactive)

## O=C1N/C(=N\N=C\c2ccccc2)C2(CCCCC2)O1
MDA-N
  GI50: > 100 µM (inactive)
SNB-19
  GI50: > 100 µM (inactive)
U-251
  GI50: 77.8 µM (inactive)
786-0
  GI50: 64.9 µM (inactive)
UACC-257
  GI50: > 100 µM (inactive)
BT-549
  GI50: > 100 µM (inactive)
SW-620
  GI50: > 100 µM (inactive)
COLO 205
  GI50: 93.1 µM (inactive)
SK-MEL-2
  GI50: > 100 µM (inactive)
HOP-62
  GI50: 83.4 µM (inactive)
MCF7
  GI50: > 100 µM (inactive)
LOX IMVI
  GI50: 56.5 µM (inactive)
SK-OV-3
  GI50: > 100 µM (inactive)
MDA-MB-231
  GI50: > 100 µM (inactive)
CAKI-1
  GI50: 84.9 µM (inactive)
SK-MEL-28
  GI50: > 100 µM (inactive)
HCT-116
  GI50: 59.2 µM (inactive)
OVCAR-3
  GI50: 44.9 µM (inactive)
NCI-H522
  GI50: > 100 µM (inactive)
SF-295
  GI50: 55.1 µM (inactive)
HT-29
  GI50: 78 µM (inactive)
NCI-H23
  GI50: > 100 µM (inactive)
Malme-3M
  GI50: > 100 µM (inactive)
M14
  GI50: > 100 µM (inactive)
A549
  GI50: 54.5 µM (inactive)
SR
  GI50: 16.3 µM (inactive)
CCRF-CEM
  GI50: 17.8 µM (inactive)
UACC-62
  GI50: > 100 µM (inactive)
MDA-MB-435
  GI50: > 100 µM (inactive)
OVCAR-4
  GI50: > 100 µM (inactive)
SF-539
  GI50: > 100 µM (inactive)
SNB-75
  GI50: 20.5 µM (inactive)
HCC 2998
  GI50: 87.3 µM (inactive)
EKVX
  GI50: > 100 µM (inactive)
SF-268
  GI50: > 100 µM (inactive)
UO-31
  GI50: 43.1 µM (inactive)
KM12
  GI50: > 100 µM (inactive)
PC-3
  GI50: 80.4 µM (inactive)
TK-10
  GI50: 74.6 µM (inactive)
NCI-H226
  GI50: 44.5 µM (inactive)
OVCAR-5
  GI50: > 100 µM (inactive)
HL-60
  GI50: 32.9 µM (inactive)
T47D
  GI50: > 100 µM (inactive)
IGROV-1
  GI50: > 100 µM (inactive)
NCI/ADR-RES
  GI50: 42.5 µM (inactive)
RXF 393
  GI50: > 100 µM (inactive)
SN12C
  GI50: 95.3 µM (inactive)
ACHN
  GI50: > 100 µM (inactive)
HOP-92
  GI50: > 100 µM (inactive)
SK-MEL-5
  GI50: 55.8 µM (inactive)
OVCAR-8
  GI50: 99.5 µM (inactive)
HCT-15
  GI50: 46.9 µM
RPMI-8226
  GI50: 53.5 µM (inactive)
DU-145
  GI50: > 100 µM (inactive)
NCI-H460
  GI50: 45 µM (inactive)
MOLT-4
  GI50: 39.3 µM (inactive)
Hs-578T
  GI50: 46.8 µM (inactive)
K562
  GI50: 35 µM (inactive)
A498
  GI50: > 100 µM (inactive)
